In paper PMC8999917, “Structure–Activity Relationship of Synthetic Ginkgolic Acid Analogs for Treating Type 2 Diabetes by PTPN9 Inhibition” (International Journal of Molecular Sciences, 2022):

Molecular target: T1, GPR120 (Homo sapiens, UniProt Q5NUL3)
T1 construct: host or cells: CHO cells
T1 sequence (Q5NUL3 1-361): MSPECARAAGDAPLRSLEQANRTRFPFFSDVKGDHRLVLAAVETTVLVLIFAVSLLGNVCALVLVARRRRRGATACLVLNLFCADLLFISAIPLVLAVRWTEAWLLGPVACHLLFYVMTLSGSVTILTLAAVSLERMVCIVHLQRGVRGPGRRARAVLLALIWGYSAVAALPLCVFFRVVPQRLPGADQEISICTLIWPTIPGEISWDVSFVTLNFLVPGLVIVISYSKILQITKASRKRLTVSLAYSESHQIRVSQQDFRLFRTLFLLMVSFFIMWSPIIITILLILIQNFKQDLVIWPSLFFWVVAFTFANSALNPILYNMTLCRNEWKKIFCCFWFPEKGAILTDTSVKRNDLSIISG
Assay: GPR120 SRE-Luc reporter gene assay in CHO cells
Format: cell-based
Conditions: 50 μM
Excerpt: Glucose uptake is regulated by three major mechanisms. First, through the activation of the Akt pathway, which promotes GLUT4 translocation via the activation of the signaling cascade involving the insulin receptor substrate (IRS) family and PI3 kinase through […] or G-protein-coupled receptors (GPCRs); second, through the upregulation of AMPK phosphorylation, which increases glucose uptake by inducing GLUT4 translocation to the plasma membrane; third, through the promotion of GLUT4 expression by PPARγ ligands. […] However, these compounds may induce GLUT4 expression and improve insulin sensitivity in the treated cells through their interactions with GPCR and/or PPARγ. Among GPCRs highly expressed in 3T3-L1 adipocytes and C2C12 muscle cells, GPR120 is the receptor that is most closely associated with glucose uptake. […] This was performed following a previously described method. In brief, CHO cells were plated to 96-well white plates (REF3610, Corning Life Sciences, NY, USA) in DMEM (HyClone^TM, Cytivalifescience, Seoul, Korea) supplemented with 10% FBS and 1% penicillin at a density of 1.5 × 10^4 cells/well. […] After incubation for another 24 h, luciferase activity was measured using the dual-luciferase assay system (Promega Korea, Seoul, Korea) according to the manufacturer’s instructions. […]

Structure (SMILES)	GPR120 transcriptional activity (SRE-Luc)
CCCCCCCCCCCCCOc1cccc(O)c1C(=O)O [Compound 1e]	No significant change
CCCCCCCCCCCCCCCOc1cccc(O)c1C(=O)O [Compound 1f]	No significant change
